Data reported in US10654883B2, “Inorganic salts of nicotinic acid mononucleotide as anti-aging agents” (Jumpstart Fertility Pty Ltd, priority 2018, dated 2020).

Legend:
COV434 cells = assay: NAD cell assay (NAD cycling method) in COV434 cells; format: cell-based, human; conditions: 200 uM, 4 hr; for Fold increase compared to NaMN (NAD level): NAD normalised to protein
Method: NAD levels were assayed based on the NAD cycling method of Zhu and Rand, PLoS One (2012), herein incorporated by reference. COV434 cells were maintained in 6 well plates and treated with the indicated compounds at a concentration of 200 uM for 4 hr. Media was removed, plates were washed in cold PBS and cells were scraped down in NAD extraction buffer containing 10 mM nicotinamide, 50 mM Tris HCl, 0.1% Triton X-100. Cells were homogenised by sonication for 5 seconds, and samples were centrifuged at 7,000 g for 5 min at 4 degrees. Aliquots were taken for later protein assay, and samples were then passed through 10 kDa amicon filters at 14,000 g, 30 min at 4 degrees to remove proteins from the sample. Each sample was measured in technical triplicate, with 25 μL sample added to 100 μL ADH cycling mix (0.2 mg/ml alcohol dehydrogenase enzyme, 2% ethanol, 100 mM Tris pH 8.5). Samples were allowed to cycle for 10 min at room temperature, followed by 50 μL addition of an MTT/PMS solution (0.1 mM phenazine methosulfate, 0.8 mM 3-(4,5-Dimethylthiazol-2-yl)-2,5-diphenyltetrazoliwn bromide), 100 mM Tris-HCl pH 8.5). Plates were then incubated for 15 min and absorbance was measured at 570 nm. NAD concentrations were extrapolated from a standard curve, and normalised to protein concentrations determined by BCA protein assay.

[1] = Solution stability in aqueous solution (D2O), degradation measured by 1H-NMR
Method: Three separate 5 mg samples of the same batch of NaMN were completely dissolved without stirring in 0.5 ml of deuterated water (D2O), each in three separate NMR tubes. All three samples were analysed at the time of dissolution via ^1H-NMR for purity.
The first NMR tube was maintained at a temperature of 25° C. The second NMR tube was maintained at a temperature of 40° C. The third NMR tube was maintained at a temperature of 60° C. Degradation of the control NaMN was measured using ^1H-NMR. Degradation of the control NaMN in aqueous solutions was analyzed over a period of 36 weeks (see FIG. 1).
The stability of the salts I-001, I-002, I-003, and I-004 in aqueous solution phase was also tested. Following the same procedure described in the control NaMN, the respective solutions of I-001, I-002, I-003, and I-004 were maintained at 25° C. and analysed for 38 weeks.

Row | SMILES | Fold increase compared to NaMN (NAD level) (COV434 cells) | Fold Increase compared to NaMN on a molar basis (NAD level) (COV434 cells) | degradation in aqueous solution ([1]; 7 weeks, 10 mg/mL) | degradation in aqueous solution ([1]; 38 weeks, 10 mg/mL) | degradation in aqueous solution ([1]; 24 weeks, 10 mg/mL) | degradation in aqueous solution ([1]; 34 weeks, 10 mg/mL) | degradation in aqueous solution ([1]; 25° C., week 10, D2O, 1H-NMR) | degradation in aqueous solution ([1]; 40° C., week 2, D2O, 1H-NMR, study halted) | degradation in aqueous solution ([1]; 60° C., after a week, D2O, 1H-NMR, study halted)
1 | CC(=O)O[C@@H]1[C@H](OC(C)=O)[C@@H](COP(=O)([O-])O)O[C@H]1[n+]1cccc(C(=O)[O-])c1.[Na+] [Compound I-008, Sodium 1-((2R,3R, 4R, 5R)-3,4-diacetoxy-5-(((hydrogenphosphonato)oxy)methyl)tetrahydrofuran-2-yl)pyridine-1-ium-3-carboxylate] | 0.8 | 0.99 |  |  |  |  |  |  | 
2 | O=C([O-])c1ccc[n+]([C@@H]2O[C@H](COP(=O)([O-])[O-])[C@@H](O)[C@H]2O)c1.[Na+].[Na+] [Compound I-003, Sodium 1-((2R,3R,4S,5R)-3,4-dihydroxy-5-((phosphonatooxy)methyl)-tetrahydrofuran-2-yl)pyridine-1-ium-3-carboxylate] | 1.0 | 1.08 | under 2% |  |  |  |  |  | 
3 | O=C([O-])c1ccc[n+]([C@@H]2O[C@H](COP(=O)([O-])O)[C@@H](O)[C@H]2O)c1.[Na+] [Compound I-001, Sodium 1-((2R,3R,4S,5R)-5-(((hydrogenphosphonato)oxy)methyl)-3,4-dihydroxytetrahydrofuran-2-yl)pyridine-1-ium-3-carboxylate] | 3.0 | 3.23 | under 2% | 4.3% |  |  |  |  | 
4 | O=C([O-])c1ccc[n+]([C@@H]2O[C@H](COP(=O)([O-])O)[C@@H](O)[C@H]2O)c1.[K+] [Compound I-002, Potassium 1-((2R,3R,4S,5R)-5-(((hydrogenphosphonato)oxy)methyl)-3,4-dihydroxytetrahydrofuran-2-yl)pyridine-1-ium-3-carboxylate] | 0.8 | 0.84 | under 2% |  | 4.7% |  |  |  | 
5 | CC(=O)O[C@@H]1[C@H](OC(C)=O)[C@@H](COP(=O)([O-])O)O[C@H]1[n+]1cccc(C(=O)[O-])c1.[K+] [Compound I-009, potassium 1-((2R,3R, 4R, 5R)-3,4-diacetoxy-5-(((hydrogenphosphonato)oxy)methyl)tetrahydrofuran-2-yl)pyridine-1-ium-3-carboxylate] | 1.0 | 1.39 |  |  |  |  |  |  | 
6 | O=C([O-])c1ccc[n+]([C@@H]2O[C@H](COP(=O)([O-])[O-])[C@@H](O)[C@H]2O)c1.[K+].[Na+] [Compound I-006, Potassium sodium 1-((2R,3R,4S,5R)-3,4-dihydroxy-5-((phosphonatooxy)methyl)tetrahydrofuran-2-yl)pyridine-1-ium-3-carboxylate] | 2.3 | 2.72 |  |  |  |  |  |  | 
7 | O=C([O-])c1ccc[n+]([C@@H]2O[C@H](COP(=O)([O-])[O-])[C@@H](O)[C@H]2O)c1.[K+].[K+] [Compound I-004, Potassium 1-((2R,3R,4S,5R)-3,4-dihydroxy-5-((phosphonatooxy)methyl)-tetrahydrofuran-2-yl)pyridine-1-ium-3-carboxylate] | 1.3 | 1.57 | under 2% |  |  | 2.6% |  |  | 
8 | O=C(O)c1ccc[n+]([C@@H]2O[C@H](COP(=O)(O)O)[C@@H](O)[C@H]2O)c1 [NaMN, nicotinic acid mononucleotide] | 1.0 | 1.0 |  |  |  |  | about 12.3% | 15.3% | 35%
